Results taken from US9624269B2, “Peptide inhibitors of BACE1” (GENENTECH, INC., priority 2011, dated 2017).
Positions of bridges follow the written chain, without caps; N, C: chain ends. Residues, ends and D or L forms follow the SMILES beside them.

Legend:
[1] = molecular target: rhBACE2 (Homo sapiens, UniProt Q9Y5Z0); assay: BACE2 activity assay (microfluidic capillary electrophoresis); format: biochemical; conditions: 5 nM rhBACE2
Protocol: (§1) BACE1, BACE2 and Cathepsin D Activity Assay Using Microfluidic Capillary Electrophoresis (MCE).
(§2) BACE1, BACE2, and Cathepsin D reactions were carried out in a final volume of 20 μl per well in a 384-well microplate using a Caliper LabChip 3000 (Hopkinton, Mass.). A standard enzymatic reaction, initiated by the addition of 10 μ12× substrate to 5 μl of 4× enzyme and 5 μl of 4× peptide or small molecule inhibitor, contained 12 nM rhBACE1, 1 μM FAM-[…]-amide (SEQ ID NO: 20), 50 mM NaOAc, pH 4.4, 0.1% CHAPS. The same reaction conditions were used for rhBACE2 (5 nM) and Cathepsin D (6 nM) (Cat. No. 219394; EMD Biosciences, San Diego, Calif.). After incubation for 60 min at room temperature, the product and substrate in each reaction were separated using a 12-sipper microfluidic chip. Separation of product and substrate was optimized by choosing voltages and pressure using the Caliper Optimizer software. The separation buffer contained 100 mM HEPES, pH 7.2, 0.015% Brij-35, 0.1% Coating Reagent #3, 10 mM EDTA and 5% DMSO. The separation conditions used a downstream voltage of −500 V, an upstream voltage of −2250 V, and a screening pressure of −1.2 psi. The product and substrate fluorescence was excited at 488 nm and detected at 530 nm. Substrate conversion was calculated from the electrophoregram using the Caliper HTS Well Analyzer software.

[2] = molecular target: T1, Cathepsin D (Homo sapiens, UniProt P07339); assay: Cathepsin D activity assay (microfluidic capillary electrophoresis); format: biochemical; conditions: 6 nM Cathepsin D
T1 construct: purchased EMD Biosciences, San Diego, Calif; 219394
Protocol: as §1, §2

[3] = system: Aβ1-40 production in 293-hAPP cells; assay: Aβ1-40 assay in 293-hAPP cells; format: cell-based, human; conditions: 293-HEK cells stably transfected with APP, 24 h
Protocol: Aβ1-40 Assay in 293-hAPP Cells.
Aβ1-40 production was measured in 293-HEK cells stably expressing wild-type human APP(695) complementary DNA (cDNA) (293-hAPP). Cells were seeded overnight at 3×10^4 cells per well in a 96-well plate. Fresh media [Dulbecco's modified Eagle's medium (DMEM)+10% fetal bovine serum (FBS)] containing various inhibitors were incubated with the 293-hAPP cells for 24 h. The cellular medium was harvested and assayed for the presence of Aβ1-40 with an Aβ1-40 HTRF assay (CisBio) according to the manufacturer's instructions. Aβ1-40 values were normalized for cell viability, as determined with the CellTiter-Glo Luminescent Cell Viability Assay (Promega). Experiments were performed at least 3 times, and each point in each experiment was repeated in duplicate. Data was plotted with a 4-parameter nonlinear regression curve-fitting program (KaleidaGraph, Synergy Software).

[4] = molecular target: human BACE1 (rhBACE1) (Homo sapiens, UniProt P56817); assay: Caliper BACE1 activity assay (microfluidic capillary electrophoresis); format: biochemical; set-up: containing human BACE1 (extracellular domain)
Protocol: An MCE assay reactions can be carried out in a standard enzymatic reaction, initiated by the addition of substrate to enzyme and 4× compound, containing human BACE1 (extracellular domain), amyloid precursor protein beta secretase active site peptide (FAM-[…]-CONH2 (SEQ ID NO: 20)), 50 mM NaOAc pH 4.4 and 0.1% CHAPS. After incubation for 60 minutes at ambient temperature, the product and substrate in each reaction is separated using a 12-sipper microfluidic chip analyzed on an LC3000® (both, Caliper Life Sciences). The separation of product and substrate is optimized by choosing voltages and pressure using the manufacturer's optimization software. Substrate conversion is calculated from the electrophoregram using HTS Well Analyzer software (Caliper Life Sciences).
as §1, §2

human BACE1 (rhBACE1), sequence (P56817 46-457 limits assumed): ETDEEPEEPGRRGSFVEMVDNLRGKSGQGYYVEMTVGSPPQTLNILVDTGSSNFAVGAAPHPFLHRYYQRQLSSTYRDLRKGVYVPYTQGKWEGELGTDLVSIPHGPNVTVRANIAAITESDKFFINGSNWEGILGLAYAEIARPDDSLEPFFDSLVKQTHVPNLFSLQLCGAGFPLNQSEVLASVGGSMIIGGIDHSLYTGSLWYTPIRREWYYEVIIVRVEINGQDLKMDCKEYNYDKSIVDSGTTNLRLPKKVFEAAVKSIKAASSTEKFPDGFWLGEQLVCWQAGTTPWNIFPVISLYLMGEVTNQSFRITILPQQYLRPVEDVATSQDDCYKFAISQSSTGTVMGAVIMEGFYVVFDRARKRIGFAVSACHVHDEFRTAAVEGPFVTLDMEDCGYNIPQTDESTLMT
rhBACE2, sequence (Q9Y5Z0 63-518): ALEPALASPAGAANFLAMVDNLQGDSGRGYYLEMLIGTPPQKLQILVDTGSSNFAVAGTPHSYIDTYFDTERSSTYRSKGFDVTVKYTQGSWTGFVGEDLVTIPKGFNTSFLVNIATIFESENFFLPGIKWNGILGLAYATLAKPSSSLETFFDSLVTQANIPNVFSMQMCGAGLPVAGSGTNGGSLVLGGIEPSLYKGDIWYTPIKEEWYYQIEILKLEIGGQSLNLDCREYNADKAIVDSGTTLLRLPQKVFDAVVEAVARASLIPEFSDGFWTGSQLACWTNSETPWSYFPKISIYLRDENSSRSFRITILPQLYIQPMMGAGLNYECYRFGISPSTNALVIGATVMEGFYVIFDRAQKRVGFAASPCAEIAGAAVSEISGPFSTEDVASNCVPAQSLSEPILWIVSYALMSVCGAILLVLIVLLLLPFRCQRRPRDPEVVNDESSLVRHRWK
T1 sequence (P07339 65-412, species assumed): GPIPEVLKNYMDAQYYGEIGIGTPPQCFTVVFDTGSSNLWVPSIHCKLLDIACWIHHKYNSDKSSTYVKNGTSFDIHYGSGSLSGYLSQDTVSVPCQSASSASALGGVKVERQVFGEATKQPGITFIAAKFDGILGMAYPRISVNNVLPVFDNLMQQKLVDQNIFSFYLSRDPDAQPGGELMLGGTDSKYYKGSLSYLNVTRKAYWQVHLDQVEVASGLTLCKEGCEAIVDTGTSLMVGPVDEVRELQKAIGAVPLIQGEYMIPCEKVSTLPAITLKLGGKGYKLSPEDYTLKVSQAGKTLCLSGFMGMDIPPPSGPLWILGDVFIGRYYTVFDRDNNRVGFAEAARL

Inhibition of BACE2 [1]: no inhibition | Inhibition of Cathepsin D [2]: no inhibition | IC50 ([4]; 12 nM rhBACE1, 1 μM FAM-substrate, pH 4.4): 18 ± 7 nM | peptide activity (in words) ([4]; competition binding and enzymatic assays): full activity
SMILES: CC[C@H](C)[C@@H]1NC(=O)CNC(=O)[C@H](CC(C)C)NC(=O)[C@H](CC(C)C)NC(=O)[C@H](CCCNC(=N)N)NC(=O)[C@@H](NC(=O)[C@H](Cc2ccc(O)cc2)NC(=O)[C@H](CCSC)NC(=O)[C@H](CO)NC(=O)[C@H](CCC(=O)O)NC(C)=O)CSSC[C@@H](C(=O)NCC(N)=O)NC(=O)CNC1=O [BACE030] (Ac-ESMYCRLLGIGCG-NH2; disulfide 5-12)
Inhibition of Aβ production in cells (in words) [3]: potent inhibition
